The results in this text go back to patent publication US8513423B2 (Janssen Pharmaceutica, NV, priority 2010, dated 2013).

In general, pIC50 refers to the IC50 on a negative log10 scale, so that one unit is a factor of ten.

The structures appear in SMILES notation. Substitutions are numbered along the chain they refer to. pIC50, pKd: −log10 of the molar value. Read-outs that look alike come from different tables or passages of the source.

Experiment [1] deals with T1, purified wild type MGL (wt-MGLL 6H-11-313) (Homo sapiens, UniProt Q99685).
T1 construct: purified wild type MGL (wt-MGLL 6H-11-313)
T1 sequence (Q99685 1-303): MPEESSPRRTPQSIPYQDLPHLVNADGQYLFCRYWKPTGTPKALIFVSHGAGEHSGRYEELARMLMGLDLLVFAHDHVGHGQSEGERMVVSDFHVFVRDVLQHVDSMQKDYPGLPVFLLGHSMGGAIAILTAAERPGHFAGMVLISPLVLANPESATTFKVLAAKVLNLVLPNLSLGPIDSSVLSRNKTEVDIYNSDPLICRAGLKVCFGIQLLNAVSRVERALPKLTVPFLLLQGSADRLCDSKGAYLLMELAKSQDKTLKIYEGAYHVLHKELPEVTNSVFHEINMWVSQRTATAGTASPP
Briefly: MGL enzyme activity assay (4MU-B cleavage), wild type MGL. In kind it is biochemical. Conditions: 10 μM 4MU-B, 5 nM enzyme, 37° C., read-out: MGL wild type inh IC50. The protocol:
All rate-based assays were performed in black 384-well polypropylene PCR microplates (Abgene) in a total volume of 30 μL. Substrate 4-methylumbelliferyl butyrate (4MU-B; Sigma) and either purified mutant MGL (mut-MGLL 11-313 L179S L186S) or purified wild type MGL (wt-MGLL 6H-11-313) were diluted separately into 20 mM PIPES buffer (pH=7.0), containing 150 mM NaCl and 0.001% Tween 20. Compounds of Formula (I) were pre-dispensed (50 nL) into the assay plate using a Cartesian Hummingbird prior to adding 4MU-B (25 μL of 1.2× solution to a final concentration of 10 μM) followed by enzyme (5 μL of a 6× solution to a final concentration of 5 nM) to initiate the reaction. Final compound concentrations ranged from 17 to 0.0003 μM. The fluorescence change due to 4MU-B cleavage was monitored with excitation and emission wavelengths of 335 and 440 nm, respectively, and a bandwidth of 10 nm (Safire^2, Tecan) at 37° C. for 5 min.
The IC50 values for compounds of Formula (I) were determined using Excel from a fit of the equation to the concentration-response plot of the fractional activity as a function of inhibitor concentration.

For experiment [2], the target named is T2, mutant MGL (Homo sapiens, UniProt Q99685, L169S/L176S).
T2 construct: purified mutant MGL (mut-MGLL 11-313 L179S L186S)
T2 sequence (Q99685 1-303 L169S/L176S): T1 sequence (Q99685 1-303) with L169S, L176S
Briefly: MGL ThermoFluor assay - mutant. The format is binding. The protocol: The ThermoFluor (TF) assay is a 384-well plate-based binding assay that measures thermal stability of proteins^1,2. The experiments were carried out using instruments available from Johnson & Johnson Pharmaceutical Research & Development, LLC. TF dye used in all experiments was 1,8-ANS (Invitrogen: A-47). Final TF assay conditions used for MGL studies were 0.07 mg/ml of mutant MGL, 100 μM ANS, 200 mM NaCl, 0.001% Tween-20 in 50 mM PIPES (pH=7.0).
Screening compound plates contained 100% DMSO compound solutions at a single concentration. For follow-up concentration-response studies, compounds were arranged in a pre-dispensed plate (Greiner Bio-one: 781280), wherein compounds were serially diluted in 100% DMSO across 11 columns within a series. Columns 12 and 24 were used as DMSO reference and contained no compound. For both single and multiple compound concentration-repsonse experiments, the compound aliquots (46 nL) were robotically predispensed directly into 384-well black assay plates (Abgene: TF-0384/k) using the Hummingbird liquid handler. Following compound dispension, protein and dye solutions were added to achieve the final assay volume of 3 μL. The assay solutions were overlayed with 1 μl of silicone oil (Fluka, type DC 200: 85411) to prevent evaporation.
Bar-coded assay plates were robotically loaded onto a thermostatically controlled PCR-type thermal block and then heated from 40 to 90° C. degrees at a ramp-rate of 1° C./min for all experiments. Fluorescence was measured by continuous illumination with UV light (Hamamatsu LC6), supplied via fiber optics and filtered through a band-pass filter (380-400 nm; >6 OD cutoff). Fluorescence emission of the entire 384-well plate was detected by measuring light intensity using a CCD camera (Sensys, Roper Scientific) filtered to detect 500±25 nm, resulting in simultaneous and independent readings of all 384 wells. A single image with 20-sec exposure time was collected at each temperature, and the sum of the pixel intensity in a given area of the assay plate was recorded vs temperature and fit to standard equations to yield the Tm^1. • 1. Pantoliano, M. W., Petrella, E. C., Kwasnoski, J. D., Lobanov, V. S., Myslik, J., Graf, E., Carver, T., Asel, E., Springer, B. A., Lane, P., and Salemme, F. R. (2001) J Biomol Screen 6, 429-40. • 2. Matulis, D., Kranz, J. K., Salemme, F. R., and Todd, M. J. (2005) Biochemistry 44, 5258-66.
The Kd values for compounds of Formula (I) were determined from a fit of the equation to the concentration-response plot of the fractional activity as a function of Tm. For some experiments, quantitative NMR spectroscopy (qNMR) was used to measure concentration of the initial 100% DMSO compound solutions and, using the same fitting method, qKd values were determined
Background: In DSF a fluorescence change marks the thermal transition of the protein.

Where [3] appears, read: compound concentration measured by qNMR, read-out: MGL mutant ThermoFluor qKd (using qNMR conc.).
[4] abbreviates: 0.07 mg/ml mutant MGL, pH=7.0, read-out: MGL mutant ThermoFluor Kd.

As to `Cc1nc2cc(C(=O)N3CC(C4CCN(C(=O)c5nccs5)CC4)C3)ccc2n1CCC(F)(F)F` [Cpd 91, 2-Methyl-5-({3-[1-(1,3-thiazol-2-ylcarbonyl)piperidin-4-yl]azetidin-l-yl}carbonyl)-1-(3,3,3-trifluoropropyl)-1H-benzimidazole], the pIC50 in experiment [1] was 6.63. Also, the pKd in experiment [2] (setting [3]) is 7.49.

With `O=C(c1ccc2c(ccn2-c2ccc(C(F)(F)F)cc2)c1)N1CCC(C2CN(C(=O)c3nccs3)C2)CC1` [Cpd 75, 5-({4-[1(1,3-Thiazol-2-ylcarbonyl)azetidin-3-yl]piperidin-1-yl}carbonyl)-1-[4-(trifluoromethyl)phenyl]-1H-indole], the pIC50 in experiment [1] was greater than 8.30. For the same compound, the pKd in experiment [2] (setting [3]) was 8.41.

`O=C(c1ccc2c(c1)ncn2-c1ccc(C(F)(F)F)cc1)N1CC(C2CCN(C(=O)c3nccs3)CC2)C1` [Cpd 83, 5-({30[1-(1,3-Thiazol-2-ylcarbonyl)piperidin-4-yl]azetidin-1-yl}carbonyl)-1-[4-(trifluoromethyl)phenyl]-1H-benzimidazole]: the pIC50 in experiment [1] was 8.04. Besides, in experiment [2] (setting [3]), the pKd is 7.87.

Turning to `O=C(c1ccc2c(c1)[nH]c(=O)n2-c1ccc(F)c(F)c1)N1CC(C2CCN(C(=O)c3nccs3)CC2)C1` [Cpd 98, 1-(3,4-Difluorophenyl)-5-({3-[1-(1,3-thiazol-2-ylcarbonyl)piperidin-4-yl]azetidin-1-yl}carbonyl)-1,3-dihydro-2H-benzimidazol-2-one], the pIC50 in experiment [1] was 7.78. Also, in experiment [2] (setting [3]), the pKd was 7.36.

Take `O=C(c1ccc2c(c1)ncn2CC(F)(F)F)N1CC(C2CCN(C(=O)c3nccs3)CC2)C1` [Cpd 84, 5-({3-[1-(1,3-Thiazol-2-ylcarbonyl)piperidin-4-yl]azetidin-1-yl}carbonyl)-1-(2,2,2-trifluoroethyl)-1H-benzimidazole]: the pIC50 in experiment [1] is 6.76. In addition, in experiment [2] (setting [3]), the pKd was 7.18.

With `Cc1c(C(=O)N2CCC(C3CN(C(=O)c4cscn4)C3)CC2)sc2cc(C(F)(F)F)ccc12` [Cpd 61], in experiment [1], the pIC50 was 6.68. Moreover, the figures for the pKd in experiment [2] (setting [4]) and in experiment [2] (setting [3]) were 9.22 and 9.30, respectively.

Regarding `O=C(c1cccc(-c2cccc(F)c2)c1)N1CC(C2CCN(C(=O)c3ccc[nH]3)CC2)C1` [Cpd 23, 4-{1-[(3′-Fluorobiphenyl-3-yl)carbonyl]azetidin-3-yl}-1-(1H-pyrrol-2-ylcarbonyl)piperidine], the pIC50 in experiment [1] was 6.43. For the same compound, the pKd in experiment [2] (setting [4]) was 6.30.

With `O=C(c1ccc2c(c1)ncn2CCC(F)(F)F)N1CC(C2CCN(C(=O)c3nccs3)CC2)C1` [Cpd 85, 5-({3-[1-(1,3-Thiazol-2-ylcarbonyl)piperidin-4-yl]azetidin-1-yl}carbonyl)-1-(3,3,3-trifluoropropyl)-1H-benzimidazole], in experiment [1], the pIC50 is 6.55. Further, the pKd in experiment [2] (setting [3]) was 7.19.

On to `O=C(c1ccc(-c2cccc(C(F)(F)F)c2)cc1)N1CCC(C2CN(C(=O)c3nccs3)C2)CC1` [Cpd 48, 4-[1-(1,3-Thiazol-2-ylcarbonyl)azetidin-3-yl]-1-{[3′-(trifluoromethyl)biphenyl-4-yl]carbonyl}piperidine], for which, in experiment [1], the negative-log IC50 (pIC50) was greater than 8.30. The pKd in experiment [2] (setting [3]) was 9.00.

As for `Cc1cc(-n2ccc3cc(C(=O)N4CC(C5CCN(C(=O)c6nccs6)CC5)C4)ccc32)ccn1` [Cpd 95, 1-(2-Methylpyridin-4-yl)-5-({3-[1-(1,3-thiazol-2-ylcarbonyl)piperidin-4-yl]azetidin-1-yl}carbonyl)-1H-indole], the pIC50 in experiment [1] was 7.85. Also, the pKd in experiment [2] (setting [3]) is 7.41.

In the case of `Cc1nc2cc(C(=O)N3CC(C4CCN(C(=O)c5nccs5)CC4)C3)ccc2n1-c1ccc(F)c(F)c1` [Cpd 88, 1-(3,4-Difluorophenyl)-2-methyl-5-({3-[1-(1,3-thiazol-2-ylcarbonyl)piperidin-4-yl]azetidin-1-yl}carbonyl)-1H-benzimidazole], the pIC50 in experiment [1] is 8.02. In experiment [2] (setting [3]), the pKd is 7.88.

As for `O=C(c1cscn1)N1CCC(C2CN(C(=O)c3ccc(-c4ccccc4)cc3F)C2)CC1` [Cpd 9, 4-{1-[(3-Fluorobiphenyl-4-yl)carbonyl]azetidin-3-yl}-1-(1,3-thiazol-4-ylcarbonyl)piperidine], the pIC50 in experiment [1] was 6.94. For the same compound, in experiment [2] (setting [4]), the pKd was 7.00.

In the case of `O=C(c1ccc2c(c1)[nH]c(=O)n2-c1ccc(C(F)(F)F)cc1)N1CC(C2CCN(C(=O)c3nccs3)CC2)C1` [Cpd 99, 5-({3-[1-(1,3-Thiazol-2-ylcarbonyl)piperidin-4-yl]azetidin-1-yl}carbonyl)-1-[4-(trifluoromethyl)phenyl]-1,3-dihydro-2H-benzimidazol-2-one], the pIC50 in experiment [1] was 7.76. Besides, the pKd in experiment [2] (setting [3]) is 7.78.

With `Cc1nc2cc(C(=O)N3CC(C4CCN(C(=O)c5nccs5)CC4)C3)ccc2n1-c1ccc(C(F)(F)F)cc1` [Cpd 89, 2-Methyl-5-({3-[1-(1,3-thiazol-2-ylcarbonyl)piperidin-4-yl]azetidin-1-yl}carbonyl)-1-[4-(trifluoromethyl)phenyl]-1H-benzimidazole], the pIC50 in experiment [1] is 7.47. Further, in experiment [2] (setting [3]), the pKd was 8.11.

Regarding `O=C(c1cscn1)N1CC(C2CCN(C(=O)c3ccc(-c4ccccc4)cc3F)CC2)C1` [Cpd 46], the pIC50 in experiment [1] is 6.95. In addition, the pKd in experiment [2] (setting [3]) is 7.70.

For the compound `O=C(c1ccc2c(c1)[nH]c(=O)n2-c1ccc(F)cc1)N1CC(C2CCN(C(=O)c3nccs3)CC2)C1` [Cpd 97, 1-(4-Fluorophenyl)-5-({3-[1-(1,3-thiazol-2-ylcarbonyl)piperidin-4-yl]azetidin-1-yl}carbonyl)-1,3-dihydro-2H-benzimidazol-2-one], the pIC50 in experiment [1] is 7.47. For the same compound, in experiment [2] (setting [3]), the pKd is 7.66.

As for `O=C(c1ccccc1)N1CCC(O)(C2CN(C(=O)c3cc4cc(C(F)(F)F)ccc4s3)C2)CC1` [Cpd 6, 1-(Phenylcarbonyl)-4-(1-{[5-(trifluoromethyl)-1-benzothiophen-2-yl]carbonyl}azetidin-3-yl)piperidin-4-ol], in experiment [1], the pIC50 is 6.04. For the same compound, the pKd in experiment [2] (setting [4]) is 6.59.

Turning to `Cc1nc2cc(C(=O)N3CC(C4CCN(C(=O)c5nccs5)CC4)C3)ccc2n1-c1ccc(F)cc1` [Cpd 87, 1-(4-Fluorophenyl)-2-methyl-5-({3-[1-(1,3-thiazol-2-ylcarbonyl)piperidin-4-yl]azetidin-1-yl}carbonyl)-1H-benzimidazole], the pIC50 in experiment [1] was 7.50. Moreover, the pKd in experiment [2] (setting [3]) was 8.12.
